Assay results from patent US10259798B2, “High-purity magnesium lithospermate B and preparation method therefor” (priority 2014, dated 2019).
“Also recorded” adds a separate entry of the source. Like-named read-outs stand apart in the source and are kept apart here. Marks after values point to notes of the source that are not given here.

Assays:
[1] = tested on: bleeding of severed tails of rats; test: Bleeding time of severed tails of rats; type: in vivo, SD rat; details: for Bleeding time: injection through femoral vein, tail severed 2 mins after administration, cut-off 1800 seconds
Text: Sample and control: lithospermic acid B, dipotassium lithospermate B, depside salts of Salvia miltiorrhiza (comprising 85% magnesium lithospermate B), magnesium lithospermate B, formulated with normal saline prior to use; normal saline as solvent control was from Jiangsu Yabang Pharmaceutical Co., Ltd.; the other reagents were all commercially available analytically pure products. Experimental animal: species and strain: SD rat; source: Shanghai SLAC Laboratory Animal Co., Ltd., Laboratory Animal Production License: SCXK (Shanghai) 2012-0002; number and gender: 50, male; animal weight: 120-200 g. Dosage setting: the dosages of lithospermic acid type reagents were set as 50 and 100 mg/kg in the present experiment; normal saline was given as additional solvent control. Tail severing time was 2 mins after administration. Administration route and administration dosage of sample and control: administration by injection through femoral vein, 2 ml/kg. Experimental method: the animals were water fasted overnight. 50 mg/kg pentobarbital sodium was intraperitoneally injected for anesthesia prior to the experiment. After anesthesia of the animals, markers were made at 4 mm from tips of rat tails with a marker pen and ruler. Drugs were injected through femoral veins of the animals. 2 mins later, the tails were swiftly severed at marked positions of the animal tails with a scalpel. The remained animal tails were rapidly inserted into prepared normal saline tubes in 37° C. water bath, and timing was started. The bleeding of the animal tails was observed. If no more bleeding was observed within 30 seconds, the time was recorded as coagulation time (unit: second) of the animals. […] Observation indicator and observation time: the indicator was the bleeding time. Statistical method: the experimental data was represented with x±SD; GraphPad Prism 5 1 way ANOVA was applied for significance test.

[2] = tested on: lipid oxidation in rat liver microsome; test: In vitro anti-lipid peroxidation experiment (MDA, TBA method); type: biochemical, SD rat; details: 100 μM, 37° C. 90 mins
Text: Sample and control: magnesium lithospermate B (prepared according to Example 6 of the present application), lithospermic acid B (lab-made; lot number: 20131017), formulated with normal saline prior to use; normal saline as solvent control was from Jiangsu Yabang Pharmaceutical Co., Ltd.; the other reagents were all commercially available analytically pure products. Tris base, potassium chloride, dipotassium phosphate, glycerol, etc. (Sinopharm Chemical Reagent Co., Ltd.); Coomassie brilliant blue G-250, bovine serum albumin (Shanghai Lanji Technology Development Co., Ltd.).
Experimental animal: species and strain: SD rat; source: Shanghai SLAC Laboratory Animal Co., Ltd., Laboratory Animal Production License: SCXK (Shanghai) 2012-0002; number and gender: 2, male; animal weight: 200-250 g.
Steps for preparing liver microsome: liver tissue was taken out, cut into pieces, washed with Buffer A, wiped up, and weighed for 8 g. By adding 10 ml Buffer A per gram of tissue, 80 ml was added in total, followed by automatic homogenization and further homogenization with manual homogenizer. The homogenate was centrifuged at 10,000 g and 4° C. for 30 mins, and the supernatant was taken out. The supernatant was centrifuged at 105,000 g and 4° C. for 60 mins. The resulting precipitate is the microsome, which was then added with Buffer B to obtain microsome suspension, aliquoted into 2 ml small tubes, and stored in −70° C. refrigerator for further use. Determination of protein content: using Bradford method (Coomassie brilliant blue G-250 method).
Determination of lipid oxidation in rat liver microsome: 1 ml liver microsome was added into each tube, followed by addition of different concentrations of reagent solutions. The mixtures were well shaken and incubated in 37° C. water bath for 90 mins. After the tubes were taken out, 1 ml 10% trichloroacetic acid (TCA) and 1 ml 0.67% thiobarbituric acid (TBA) were added into each tube. The tubes were placed in boiling water bath for 15 mins, then cooled with running water and centrifuged at 3000 rpm for 10 mins. The supernatants were taken for colorimetric determination at 532 nm. The contents were calculated with standard tetraethoxypropane and represented with content per mg protein.
Calculation formula: MDA content (nmol/mg prot)={[(Asample−Ablank)÷(Astandard−Ablank)]×10 nmol/ml}÷protein content Inhibition rate %=(MDAblank−MDAsample)/MDAblank×100%

[3] = type: physicochemical; details: for 0 h peak area / 2 h peak area / 4 h peak area / 6 h peak area / 8 h peak area / 12 h peak area / 24 h peak area: HPLC 288 nm; for 0 h peak area: 1 mg/mL aqueous solution at 25° C. diluted 10 times, MLB of Example 1; for 2 h peak area / 4 h peak area / 6 h peak area / 8 h peak area / 12 h peak area / 24 h peak area: aqueous solution; for Average peak area: average over 0-24 h
Protocol: The chemical stability of magnesium lithospermate B was investigated by detecting the variation of peak areas (HPLC). Specific experimental method: lithospermic acid B (lab-made; lot number: 20131017) and magnesium lithospermate B prepared in Example 1 of the present invention were respectively formulated to 1 mg/mL aqueous solution at 25° C., which was then diluted 10 times. The variation of peak areas of lithospermic acid B at 288 nm for durations of 0, 2, 4, 6, 8, 12, and 24 hours were detected by HPLC, respectively. 10 microliters was injected for each time.

[4] = tested on: cardiac myoblast cell H9C2; type: cell-based
Text: (§1) Sample and control: magnesium lithospermate B (prepared according to Example 6 of the present application), lithospermic acid B (lab made; lot number: 20131017), formulated with normal saline prior to use; normal saline as solvent control was derived from Jiangsu Yabang Pharmaceutical Co., Ltd.; the other reagents were all commercially available analytically pure products. Cell lines and reagents: cardiac myoblast (H9C2); Microvascular Endothelial Cell (HMEC-1); Lactic Dehydrogenase Cytotoxicity Detection Kit, Beyotime Biotechnology Institute. Dosage setting: the dosages of lithospermic acid B and magnesium lithospermate B were set at 10, 50, 100, 200, 400, 800, 1200, 1600 μM and the incubation time was set as 24 hours in the present experiment. Experimental method: H9C2 cells and HMEC-1 cells were respectively incubated in 10% FBS containing low saccharide DMEM medium and MCDB-131 medium, at 37° C. and 5% CO2. Cells were seeded in a 96-well culture plate, which was added with different concentrations of lithospermic acid B solutions and magnesium lithospermate B solutions on the next day (about 80% fusion). After incubation for 24 hours in total, the detection was conducted according to instructions of the Lactic Dehydrogenase Cytotoxicity Detection Kit. Observation indicator and observation time: the observation indicator is the level of lactic dehydrogenase in cells; cell survival rate was represented by intracellular LDH content ratio, i.e. (absorbance of treated sample well−absorbance of sample control well)/(absorbance of cells with maximum enzymatic activity−absorbance of sample control well)×100. Statistical method: the data was presented with average±standard derivation (mean±SD); the comparison of two groups of data was statistically analyzed by student-t test method, P<0.05 indicating statistical difference.

[5] = tested on: endothelial cell HMEC-1; type: cell-based
Text: as §1

Compound | Bleeding time ([1]; 50 mg/kg) | Bleeding time ([1]; 100 mg/kg) | Inhibition rate (anti-lipid peroxidation, MDA) ([2]; n = 3) | 0 h peak area [3] | 2 h peak area [3] | 4 h peak area [3] | 6 h peak area [3] | 8 h peak area [3] | 12 h peak area [3] | 24 h peak area [3] | Average peak area [3] | Toxic effect at high dosages, in words [4] | Toxic effect at high dosages, in words [5] | also measured
O=C(C=Cc1ccc(O)c2c1C(C(=O)OC(Cc1ccc(O)c(O)c1)C(=O)[O-])C(c1ccc(O)c(O)c1)O2)OC(Cc1ccc(O)c(O)c1)C(=O)[O-].[K+].[K+] (stereo not shown) [Dipotassium lithospermate B, dipotassium lithospermate B, reference compound] | 827 ± 70**^$$ second | 1301 ± 189**^$$ second |  |  |  |  |  |  |  |  |  |  |  | 
O=C(/C=C/c1ccc(O)c2c1[C@H](C(=O)OC(Cc1ccc(O)c(O)c1)C(=O)[O-])C(c1ccc(O)c(O)c1)O2)O[C@H](Cc1ccc(O)c(O)c1)C(=O)[O-].[Mg+2] (stereo partly shown) [Magnesium lithospermate B, magnesium lithospermate B] | 1098 ± 84 s | 1800 ± 0 s | 84.41% | 3611 | 3632 | 3614 | 3636 | 3629 | 3628 | 3599 | 3621.3 | toxic effect | toxic effect | Inhibition rate (anti-lipid peroxidation, MDA) ([2]; n = 3, listed as magnesium lithospermate B): around 85%; Bleeding time / activity compared with the other test substances, in words ([1]; same dosage, intravenous injection): remarkably longer than lithospermic acid B administration group; also recorded: significantly longer than dipotassium lithospermate B and depside salts of Salvia miltiorrhiza; also recorded: activity superior to the free acid (lithospermic acid B), other salts (dipotassium lithospermate B), and low purity mixtures (salvianolates of Salvia miltiorrhiza); also recorded: better activities than free acid (lithospermic acid B), other salt (dipotassium lithospermate B), and low purity mixture (depside salts of Salvia miltiorrhiza); Concentrations that significantly decreased the intracellular LDH content as compared with normal control wells ([4]; rat, 24 h): 800, 1200, 1600 μM; Intracellular LDH content percent, H9C2 cell ([4]; rat, 24 h, 10 μM): 101.42 ± 2.00%; Intracellular LDH content percent, H9C2 cell ([4]; rat, 24 h, 50 μM): 99.97 ± 1.43%; Intracellular LDH content percent, H9C2 cell ([4]; rat, 24 h, 100 μM): 101.25 ± 2.79%; Intracellular LDH content percent, H9C2 cell ([4]; rat, 24 h, 200 μM): 102.39 ± 1.37%; Intracellular LDH content percent, H9C2 cell ([4]; rat, 24 h, 400 μM): 102.75 ± 3.07%; Intracellular LDH content percent, H9C2 cell ([4]; rat, 24 h, 800 μM): 37.72 ± 7.52 %; Intracellular LDH content percent, H9C2 cell ([4]; rat, 24 h, 1200 μM): 21.59 ± 2.86 %; Intracellular LDH content percent, H9C2 cell ([4]; rat, 24 h, 1600 μM): 14.59 ± 3.05 %; Concentrations that significantly decreased the intracellular LDH content as compared with normal control wells ([5]; human, 24 h): 1200 and 1600 μM; Intracellular LDH content percent, HMEC-1 cell ([5]; human, 24 h, 10 μM): 99.70 ± 3.88%; Intracellular LDH content percent, HMEC-1 cell ([5]; human, 24 h, 50 μM): 101.05 ± 4.77%; Intracellular LDH content percent, HMEC-1 cell ([5]; human, 24 h, 100 μM): 100.96 ± 4.01%; Intracellular LDH content percent, HMEC-1 cell ([5]; human, 24 h, 200 μM): 98.58 ± 0.24%; Intracellular LDH content percent, HMEC-1 cell ([5]; human, 24 h, 400 μM): 97.8 ± 1.03%; Intracellular LDH content percent, HMEC-1 cell ([5]; human, 24 h, 800 μM): 96.93 ± 1.37%; Intracellular LDH content percent, HMEC-1 cell ([5]; human, 24 h, 1200 μM): 96.17 ± 1.00 %; Intracellular LDH content percent, HMEC-1 cell ([5]; human, 24 h, 1600 μM): 84.28 ± 3.28 %
O=C(/C=C/c1ccc(O)c2c1[C@H](C(=O)O[C@H](Cc1ccc(O)c(O)c1)C(=O)O)[C@@H](c1ccc(O)c(O)c1)O2)O[C@H](Cc1ccc(O)c(O)c1)C(=O)O [Lithospermic acid B, lithospermic acid B, reference compound] | 869 ± 71 s | 1078 ± 137 s | 86.42% | 3957 | 3991 | 3992 | 3983 | 4002 | 3990 | 4000 | 3987.8 | toxic effect | toxic effect | Inhibition rate (anti-lipid peroxidation, MDA) ([2]; n = 3, listed as lithospermic acid B): around 85%
